Drawing on ChEMBL document CHEMBL3352758, “Structural Analysis of the Binding of Type I, I1/2, and II Inhibitors to Eph Tyrosine Kinases” (ACS Med Chem Lett, 2015), this text covers IC50 for two compounds.

The structures appear in SMILES notation.

For this assay, the target named is T1, Ephrin type-B receptor 4 (Homo sapiens, UniProt P54760).
T1 sequence (P54760 whole entry): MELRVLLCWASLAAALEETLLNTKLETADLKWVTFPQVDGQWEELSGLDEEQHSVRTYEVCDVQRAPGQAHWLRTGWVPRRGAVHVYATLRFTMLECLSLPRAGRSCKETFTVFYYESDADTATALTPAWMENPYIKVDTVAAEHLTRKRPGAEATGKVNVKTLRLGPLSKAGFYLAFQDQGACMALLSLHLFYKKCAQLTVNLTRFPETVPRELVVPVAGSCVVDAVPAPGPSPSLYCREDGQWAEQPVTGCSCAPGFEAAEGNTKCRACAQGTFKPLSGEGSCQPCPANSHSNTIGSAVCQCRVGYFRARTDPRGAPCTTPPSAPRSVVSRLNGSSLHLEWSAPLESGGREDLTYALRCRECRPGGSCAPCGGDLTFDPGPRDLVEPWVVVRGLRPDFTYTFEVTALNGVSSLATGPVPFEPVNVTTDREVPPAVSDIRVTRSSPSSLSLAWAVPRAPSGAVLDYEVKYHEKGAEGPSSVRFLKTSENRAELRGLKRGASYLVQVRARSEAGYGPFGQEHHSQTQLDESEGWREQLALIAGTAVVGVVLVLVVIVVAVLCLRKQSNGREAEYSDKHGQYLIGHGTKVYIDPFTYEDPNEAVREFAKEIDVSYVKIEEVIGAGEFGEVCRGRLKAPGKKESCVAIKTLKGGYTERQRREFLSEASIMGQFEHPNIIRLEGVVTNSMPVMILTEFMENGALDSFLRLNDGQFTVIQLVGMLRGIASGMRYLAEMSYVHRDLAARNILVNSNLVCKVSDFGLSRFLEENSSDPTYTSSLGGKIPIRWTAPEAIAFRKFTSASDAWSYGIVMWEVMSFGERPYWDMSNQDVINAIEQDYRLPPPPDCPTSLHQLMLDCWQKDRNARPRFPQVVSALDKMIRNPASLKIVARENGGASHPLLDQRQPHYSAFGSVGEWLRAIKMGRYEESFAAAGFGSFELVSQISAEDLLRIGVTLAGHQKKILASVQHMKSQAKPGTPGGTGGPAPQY
The assay is described as follows: Inhibition of EphB4 (unknown origin) by FRET-based enzymatic assay in presence of 30 uM ATP.

One may read the IC50 as the concentration that inhibits the measured activity by half.

`Cc1ccc(-c2csc(NC(=O)CCCC(=O)O)c2C(N)=O)cc1C`: the IC50 (read-out: IC50) turned out to be 8 µM. For `Cc1ccc(-n2nc(C(C)(C)C)cc2NC(=O)Nc2ccc(OCCN3CCOCC3)c3ccccc23)cc1` [DORAMAPIMOD], the IC50 entry is reported as “Not Active”.
